Reference: ChEMBL document CHEMBL3621086, “Synthesis of -brominated phosphonates and their application as phosphate bioisosteres” (Medchemcomm, 2014)

Legend:
MDA-MB-231 = test: Inhibition of cell migration in human MDA-MB-231 cells by scratch wound assay; format: functional
Autotaxin [1] = molecular target: T1, Autotaxin (Homo sapiens, UniProt Q13822); test: Inhibition of recombinant ATX (unknown origin) assessed as inhibition of hydrolysis of fluoregenic lysoPC analogue FS-3 at 10 uM
Autotaxin [2] = molecular target: T1, Autotaxin; test: Inhibition of recombinant ATX (unknown origin) assessed as inhibition of hydrolysis of fluoregenic lysoPC analogue FS-3
[3] = molecular target: T2, Purine nucleoside phosphorylase (Homo sapiens, UniProt P00491); test: Inhibition of human erythrocyte PNP
T2 sequence (P00491 whole entry): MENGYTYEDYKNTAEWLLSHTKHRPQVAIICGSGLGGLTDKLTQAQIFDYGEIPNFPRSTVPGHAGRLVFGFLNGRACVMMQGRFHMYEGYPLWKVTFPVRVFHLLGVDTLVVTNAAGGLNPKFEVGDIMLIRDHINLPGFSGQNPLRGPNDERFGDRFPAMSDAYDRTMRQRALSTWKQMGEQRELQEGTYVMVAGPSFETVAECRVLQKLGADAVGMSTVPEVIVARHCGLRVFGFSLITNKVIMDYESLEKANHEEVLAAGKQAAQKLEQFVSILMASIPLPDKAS

[4] = molecular target: Lysophosphatidic acid receptor 4 (Homo sapiens, UniProt Q99677); test: Antagonist activity at human LPA4 receptor expressed in CHO cells assessed as inhibition of LPA-induced Ca2+ mobilization by FURA-2AM dye based fluorescence assay; format: functional, cell-based
[5] = molecular target: Lysophosphatidic acid receptor 1 (Homo sapiens, UniProt Q92633); test: Antagonist activity at human LPA1 receptor expressed in […] cells assessed as inhibition of LPA-induced Ca2+ mobilization by FURA-2AM dye based fluorescence assay; format: functional, cell-based
[6] = molecular target: T3, Lysophosphatidic acid receptor 3 (Homo sapiens, UniProt Q9UBY5); test: Antagonist activity at human LPA3 receptor expressed in […] cells assessed as inhibition of LPA-induced Ca2+ mobilization by FURA-2AM dye based fluorescence assay; format: functional, cell-based
T3 sequence (Q9UBY5 whole entry): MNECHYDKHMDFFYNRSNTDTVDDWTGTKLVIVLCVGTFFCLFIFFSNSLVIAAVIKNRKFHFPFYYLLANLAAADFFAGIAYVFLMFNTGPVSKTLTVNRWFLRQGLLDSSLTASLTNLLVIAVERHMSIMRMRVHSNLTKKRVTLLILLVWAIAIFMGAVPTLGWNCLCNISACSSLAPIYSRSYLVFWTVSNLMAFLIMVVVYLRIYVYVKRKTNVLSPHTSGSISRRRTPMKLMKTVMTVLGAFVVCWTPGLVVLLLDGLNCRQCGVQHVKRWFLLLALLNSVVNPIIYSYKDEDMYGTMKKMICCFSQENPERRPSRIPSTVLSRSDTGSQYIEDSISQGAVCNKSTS

[7] = molecular target: Lysophosphatidic acid receptor 2 (Homo sapiens, UniProt Q9HBW0); test: Antagonist activity at human LPA2 receptor expressed in […] cells assessed as inhibition of LPA-induced Ca2+ mobilization by FURA-2AM dye based fluorescence assay; format: functional, cell-based
[8] = Binding affinity to Yersinia YopH
[9] = molecular target: Transient receptor potential cation channel subfamily V member 1 (Homo sapiens, UniProt Q8NER1); test: Activation of TRPV-1 channel (unknown origin)
Transient receptor potential cation channel subfamily V member 1, sequence (Q8NER1 whole entry): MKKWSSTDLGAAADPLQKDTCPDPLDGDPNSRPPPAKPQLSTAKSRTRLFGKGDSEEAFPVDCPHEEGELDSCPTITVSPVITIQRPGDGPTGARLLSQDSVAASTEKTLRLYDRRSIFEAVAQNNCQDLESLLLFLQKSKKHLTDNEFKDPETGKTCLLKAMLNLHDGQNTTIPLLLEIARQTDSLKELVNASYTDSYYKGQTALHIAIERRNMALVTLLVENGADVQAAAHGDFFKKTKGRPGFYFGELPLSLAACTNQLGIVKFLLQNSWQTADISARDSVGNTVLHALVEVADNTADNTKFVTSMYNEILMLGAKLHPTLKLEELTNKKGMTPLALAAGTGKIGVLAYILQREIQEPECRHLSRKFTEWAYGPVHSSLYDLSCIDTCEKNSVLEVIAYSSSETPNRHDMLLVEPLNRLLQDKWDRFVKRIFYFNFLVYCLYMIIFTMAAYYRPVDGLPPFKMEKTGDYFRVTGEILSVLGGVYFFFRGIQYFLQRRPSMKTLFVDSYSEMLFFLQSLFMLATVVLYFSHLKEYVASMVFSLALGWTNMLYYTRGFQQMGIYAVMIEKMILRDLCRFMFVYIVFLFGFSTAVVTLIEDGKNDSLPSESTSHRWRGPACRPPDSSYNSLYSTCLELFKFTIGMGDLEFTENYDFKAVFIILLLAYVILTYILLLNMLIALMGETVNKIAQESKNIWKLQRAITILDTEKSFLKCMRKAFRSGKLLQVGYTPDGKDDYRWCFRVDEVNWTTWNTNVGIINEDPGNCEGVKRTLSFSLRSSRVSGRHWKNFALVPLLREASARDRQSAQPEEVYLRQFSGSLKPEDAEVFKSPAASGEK

Lysophosphatidic acid receptor 2, sequence (Q9HBW0 whole entry): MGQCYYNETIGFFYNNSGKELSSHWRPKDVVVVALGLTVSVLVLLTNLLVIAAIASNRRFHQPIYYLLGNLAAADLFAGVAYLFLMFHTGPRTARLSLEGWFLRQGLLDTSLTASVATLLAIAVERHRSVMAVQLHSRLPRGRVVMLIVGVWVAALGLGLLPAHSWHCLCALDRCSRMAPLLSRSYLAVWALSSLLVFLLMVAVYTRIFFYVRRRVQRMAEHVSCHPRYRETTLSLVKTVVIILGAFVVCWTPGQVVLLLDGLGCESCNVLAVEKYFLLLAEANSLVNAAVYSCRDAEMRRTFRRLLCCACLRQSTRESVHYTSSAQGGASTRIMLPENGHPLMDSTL
Lysophosphatidic acid receptor 1, sequence (Q92633 whole entry): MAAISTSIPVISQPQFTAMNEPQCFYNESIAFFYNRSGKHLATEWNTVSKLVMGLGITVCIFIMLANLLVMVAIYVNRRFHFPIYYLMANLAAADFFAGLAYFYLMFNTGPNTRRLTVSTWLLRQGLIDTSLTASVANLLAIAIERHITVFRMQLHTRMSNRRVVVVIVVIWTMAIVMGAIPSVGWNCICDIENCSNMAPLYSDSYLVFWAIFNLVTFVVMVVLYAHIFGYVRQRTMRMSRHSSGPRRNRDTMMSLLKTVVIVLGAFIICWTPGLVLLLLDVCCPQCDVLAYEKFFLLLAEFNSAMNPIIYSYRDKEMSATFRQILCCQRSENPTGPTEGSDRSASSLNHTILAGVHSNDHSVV
Lysophosphatidic acid receptor 4, sequence (Q99677 whole entry): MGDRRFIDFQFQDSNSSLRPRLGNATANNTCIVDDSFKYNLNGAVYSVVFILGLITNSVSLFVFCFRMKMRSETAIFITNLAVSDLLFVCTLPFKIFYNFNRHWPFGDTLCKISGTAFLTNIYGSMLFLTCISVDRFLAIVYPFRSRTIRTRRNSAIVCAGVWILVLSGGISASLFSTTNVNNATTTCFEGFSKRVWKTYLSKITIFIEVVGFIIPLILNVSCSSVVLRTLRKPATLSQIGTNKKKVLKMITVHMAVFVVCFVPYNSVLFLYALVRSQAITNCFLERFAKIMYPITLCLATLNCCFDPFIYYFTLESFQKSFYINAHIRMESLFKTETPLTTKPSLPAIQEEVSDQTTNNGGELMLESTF

## CCCCCCCCCCCCCCCC(=O)OC[C@@H](O)C[C@H](Br)P(=O)(O)O
MDA-MB-231
  inhibition (INH): 50%
Autotaxin [1]
  inhibition: 98%
Autotaxin [2]
  IC50: 0.022 µM

## Nc1nc2c(ncn2CCCCC(F)(F)P(=O)(O)O)c(=O)[nH]1
[3]
  Ki: 0.174 µM

## CCCCCCCCCCCCCCCC(=O)OC[C@@H](O)C[C@@H](Br)P(=O)(O)O
MDA-MB-231
  inhibition (INH): 50%
Autotaxin [1]
  inhibition: 98%
Autotaxin [2]
  IC50: 0.165 µM

## CCCCCCCC/C=C\CCCCCCCC(=O)OC[C@@H](O)CC(Br)P(=O)(O)O (some centres not stated)
[4]
  Ki: 0.17 µM
[5]
  Ki: 0.17 µM
[6]
  Ki: 0.17 µM
[7]
  Ki: 0.17 µM

## O=C(CCCC[C@H]1SC[C@H]2NC(=O)N[C@H]21)NCc1ccc(C(Br)P(=O)(O)O)cc1 (some centres not stated)
[8]
  Ki: 740 µM

## CCCCCCCCCCCCCCCC(=O)OC[C@@H](O)CC(Br)P(=O)(O)O (mixture of isomers) [listing 1 of 2 here]
[9]
  Kd: 1.1 µM

## CCN(CC)c1ccc2c(-c3ccc(S(=O)(=O)NCc4ccc(C(Br)P(=O)(O)O)cc4)cc3S(=O)(=O)[O-])c3ccc(=[N+](CC)CC)cc-3oc2c1 (configuration not stated)
[8]
  Ki: 690 µM

## CCN(CC)c1ccc2c(-c3ccc(S(=O)(=O)[O-])cc3S(=O)(=O)NCc3ccc(C(Br)P(=O)(O)O)cc3)c3ccc(=[N+](CC)CC)cc-3oc2c1 (configuration not stated)
[8]
  Ki: 690 µM

## CCCCCCCCCCCCCCCC(=O)OC[C@@H](O)CC(Br)P(=O)(O)O (mixture of isomers) [listing 2 of 2 here]
Autotaxin [1]
  inhibition: 98%

## CCCCCCCC/C=C\CCCCCCCC(=O)OC[C@@H](O)COP(=O)(O)O [LYSOPHOSPHATIDIC ACID]
[9]
  Kd: 0.754 µM

## O=P(O)(O)C(Br)c1ccccc1 (configuration not stated)
[8]
  Ki: 4100 µM

## CCCCCCCCCCCCCCCC(=O)OC[C@@H](O)CC(Br)P(=O)(O)O (some centres not stated)
[4]
  Ki: 0.17 µM
[5]
  Ki: 0.17 µM
[6]
  Ki: 0.17 µM
[7]
  Ki: 0.17 µM
